From ChEMBL document CHEMBL5032490, “Neuroactive Type-A γ-Aminobutyric Acid Receptor Allosteric Modulator Steroids from the Hypobranchial Gland of Marine Mollusk, Conus geographus” (J Med Chem, 2021)
Active and inactive are the calls of the source. The rule behind the calls is not given here.

Experiments:
[1] = Induction of cytosolic calcium ion concentration in mouse microglia cells at 10 uM measured after 1 hr by Fura2AM dye based fluorescence microscopic analysis; format: functional
[2] = Induction of ATP and Kcl-induced increase in cytosolic Ca2+ ion concentration mouse peptidergic nociceptive DRG neuron assessed as neuron population at 10 uM measured after 1 hr by Fura2AM dye based fluorescence microscopic analysis; format: functional
[3] = Reduction of ATP and Kcl-induced increase in cytosolic Ca2+ ion concentration mouse peptidergic nociceptive DRG neuron assessed as neuron population at 10 uM measured after 1 hr by Fura2AM dye based fluorescence microscopic analysis; format: functional; parameters: scale not given: the % may be the effect or the level left
[4] = Induction of cytosolic calcium ion concentration in mouse peptidergic nociceptive DRG neuron at 10 uM measured after 1 hr by Fura2AM dye based fluorescence microscopic analysis; format: functional
[5] = target: T1, GABA A receptor alpha-1/beta-1/gamma-2 (Homo sapiens, UniProt P14867+P18505+P18507); assay: Negative allosteric modulation activity at human GABAA alpha1beta1gamma2 stably expressed in HEK cells by whole cell patch clamp method; format: cell-based
T1 sequence (P14867 whole entry): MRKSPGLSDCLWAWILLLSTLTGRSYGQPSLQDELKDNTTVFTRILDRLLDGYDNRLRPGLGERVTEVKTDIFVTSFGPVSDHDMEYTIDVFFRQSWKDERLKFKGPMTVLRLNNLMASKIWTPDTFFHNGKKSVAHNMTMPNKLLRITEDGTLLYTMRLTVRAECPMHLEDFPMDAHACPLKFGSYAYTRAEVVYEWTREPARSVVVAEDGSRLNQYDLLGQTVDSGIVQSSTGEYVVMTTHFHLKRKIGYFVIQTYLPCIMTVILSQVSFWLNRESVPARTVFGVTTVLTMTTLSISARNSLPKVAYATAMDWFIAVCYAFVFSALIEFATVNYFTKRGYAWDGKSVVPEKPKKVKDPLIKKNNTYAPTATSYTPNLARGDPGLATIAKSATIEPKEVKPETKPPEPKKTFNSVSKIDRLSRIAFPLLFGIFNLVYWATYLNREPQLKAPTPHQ
T1 sequence (P18507 whole entry): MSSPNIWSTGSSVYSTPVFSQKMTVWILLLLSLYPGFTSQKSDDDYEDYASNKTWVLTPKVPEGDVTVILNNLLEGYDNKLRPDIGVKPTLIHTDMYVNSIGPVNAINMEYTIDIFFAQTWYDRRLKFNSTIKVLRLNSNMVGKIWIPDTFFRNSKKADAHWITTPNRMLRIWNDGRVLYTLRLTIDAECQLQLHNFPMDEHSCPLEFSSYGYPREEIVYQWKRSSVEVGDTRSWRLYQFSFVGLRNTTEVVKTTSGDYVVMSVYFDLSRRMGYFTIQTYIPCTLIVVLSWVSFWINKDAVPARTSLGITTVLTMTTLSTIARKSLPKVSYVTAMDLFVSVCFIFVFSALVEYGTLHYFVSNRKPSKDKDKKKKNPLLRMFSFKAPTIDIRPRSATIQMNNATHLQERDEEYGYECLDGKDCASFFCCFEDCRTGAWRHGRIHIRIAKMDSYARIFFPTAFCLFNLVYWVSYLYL
T1 sequence (P18505 whole entry): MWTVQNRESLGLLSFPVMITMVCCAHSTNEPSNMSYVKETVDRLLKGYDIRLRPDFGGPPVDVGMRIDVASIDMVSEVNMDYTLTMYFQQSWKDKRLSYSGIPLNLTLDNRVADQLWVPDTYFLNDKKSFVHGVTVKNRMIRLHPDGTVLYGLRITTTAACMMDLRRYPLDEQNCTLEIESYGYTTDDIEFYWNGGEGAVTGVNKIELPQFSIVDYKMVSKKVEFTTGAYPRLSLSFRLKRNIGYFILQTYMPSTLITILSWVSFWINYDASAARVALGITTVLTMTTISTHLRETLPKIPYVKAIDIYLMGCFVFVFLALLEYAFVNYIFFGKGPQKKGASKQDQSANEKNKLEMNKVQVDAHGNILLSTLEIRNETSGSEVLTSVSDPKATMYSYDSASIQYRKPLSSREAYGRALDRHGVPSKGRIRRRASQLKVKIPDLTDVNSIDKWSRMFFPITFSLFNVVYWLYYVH

[6] = target: T2, GABA-A receptor; alpha-1/beta-3/gamma-2 (Homo sapiens, UniProt P14867+P18507+P28472); assay: Negative allosteric modulation activity at human GABAA alpha1beta3gamma2 stably expressed in HEK cells by whole cell patch clamp method; format: cell-based
T2 sequence (P14867 whole entry): T1 sequence (P14867 whole entry)
T2 sequence (P18507 whole entry): T1 sequence (P18507 whole entry)
T2 sequence (P28472 whole entry): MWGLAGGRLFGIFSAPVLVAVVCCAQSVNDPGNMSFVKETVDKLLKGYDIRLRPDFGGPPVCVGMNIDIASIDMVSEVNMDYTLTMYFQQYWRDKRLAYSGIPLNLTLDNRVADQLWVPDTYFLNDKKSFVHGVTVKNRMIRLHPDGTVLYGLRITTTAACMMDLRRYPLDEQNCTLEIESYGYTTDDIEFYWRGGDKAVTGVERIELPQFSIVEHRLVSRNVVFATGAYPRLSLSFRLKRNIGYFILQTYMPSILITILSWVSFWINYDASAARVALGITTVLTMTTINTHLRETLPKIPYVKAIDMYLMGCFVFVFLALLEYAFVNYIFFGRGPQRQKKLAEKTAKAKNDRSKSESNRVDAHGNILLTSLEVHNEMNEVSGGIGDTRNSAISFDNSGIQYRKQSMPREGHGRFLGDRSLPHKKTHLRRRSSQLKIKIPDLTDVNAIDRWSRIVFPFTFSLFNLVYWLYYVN

Neuron [7] = assay: Negative allosteric modulation of human GABA receptor expressed in mouse DRG neurons assessed as inhibition of 340 nM GABA-induced responses at 0.5 uM using nociceptor; format: tissue-based; details: filed as negative allosteric modulator
Neuron [8] = assay: Negative allosteric modulation of mouse GABA receptor in mouse non-peptidergic nociceptive DRG neurons assessed as inhibition of KCl-induced response at 10 uM; format: tissue-based; details: filed as negative allosteric modulator
Mus musculus [9] = assay: Anxiolytic activity in restraint stress induced anxiety mouse model assessed as total number of responses at 2 to 50 mg/kg, ip administered measured after 5 mins by open field test; format: functional, organism-based; details: dose 2-50 mg/kg
Mus musculus [10] = assay: Antinociceptive activity in C57BL6 mouse model of inflammatory pain assessed as total number of responses during second phase at 2 to 50 mg/kg, ip administered by formalin test; format: functional, organism-based; details: dose 2-50 mg/kg
[11] = Reduction of ATP and Kcl-induced increase in cytosolic Ca2+ ion concentration mouse DRG other neuron subtype assessed as neuron population at 10 uM measured after 1 hr by Fura2AM dye based fluorescence microscopic analysis; format: functional; parameters: scale not given: the % may be the effect or the level left
[12] = Induction of cytosolic calcium ion concentration in mouse DRG other neuron subtype at 10 uM measured after 1 hr by Fura2AM dye based fluorescence microscopic analysis; format: functional

Question: With `CC(C)CCC[C@@H](C)[C@H]1CC[C@H]2[C@@H]3C(=O)C=C4C=CCC[C@]4(C)[C@H]3CC[C@]12C` as the compound, how does the Activity [1] read?
Answer: The Activity was 7%.

Question: What about the Activity [2] of the same compound?
Answer: The Activity was 56%.

Question: What about the Activity [3] of the same compound?
Answer: Its Activity is 4%.

Question: What about the Activity [4] of the same compound?
Answer: Its Activity is 33%.

Question: And the IC50 [5]?
Answer: The IC50 was 1500 nM.

Question: And the IC50 [6]?
Answer: Its IC50 is 21 µM.

Question: And the Activity (Neuron [7])?
Answer: Its Activity is “Active”.

Question: What about the Activity (Neuron [8]) of the same compound?
Answer: The Activity was “Active”.

Question: What about the Activity (Mus musculus [9]) of the same compound?
Answer: Its Activity is “inactive”.

Question: And the Activity (Mus musculus [10])?
Answer: The Activity was “inactive”.

Question: And the Activity [11]?
Answer: Its Activity is 5%.

Question: What about the Activity [12] of the same compound?
Answer: Its Activity is 3%.
